# Read-outs that look alike come from different tables or passages of the source.
# What was measured:
# [1] = Microsomal stability assay, human; format: in vitro ADME; conditions: metabolic stability, human liver microsomes 0.5 mg/mL, substrate 3 uM
# Protocol: (§1) The micorsomal stability assay is generally performed as follows. Format: 15 compounds (and 1 control verapamil) in 3 different species in duplicate sets Substrate: 3 uM Protein concentration: 0.5 mg/mL (for dog, rat, and human liver microsomes) Cofactor: 1×NADPH-Regenerating system Time-points: 2, 12, 25, 45, and 65 minutes [table] Sample preparation: 25 uL at each timepoint is added to plate with 225 uL quenching solution (50% MeOH, 25% ACN, 25% H2O, and 50 nM […]). After plates are vortexed, centrifuge for 30 minutes. Microsomal solutions: take 400 uL of 20 mg/mL microsomes and add to 13,680 uL 100 mM KPO4 buffer. Using an 8-channel, add 650 uL of this solution to the designated two columns on a short plate. The order should be dog microsomes in columns 1 and 2, rat microsomes in columns 3 and 4, and human microsomes in columns 5 and 6. Keep on ice before use. Place this plate in incubator 1 on the TECAN countertop.
# [2] = Microsomal stability assay, rat; format: in vitro ADME; conditions: metabolic stability, rat liver microsomes 0.5 mg/mL, substrate 3 uM
# Protocol: as §1
# [3] = Microsomal stability assay, dog; format: in vitro ADME; conditions: metabolic stability, dog liver microsomes 0.5 mg/mL, substrate 3 uM
# Protocol: as §1
# [4] = target: wild-type human cardiac sodium channel, hNav1.5 (peak INa) (Homo sapiens, UniProt Q14524); assay: Peak INa screening assay (tonic and use-dependent block); format: cell-based
# wild-type human cardiac sodium channel, hNav1.5 (peak INa), sequence (Q14524 whole entry): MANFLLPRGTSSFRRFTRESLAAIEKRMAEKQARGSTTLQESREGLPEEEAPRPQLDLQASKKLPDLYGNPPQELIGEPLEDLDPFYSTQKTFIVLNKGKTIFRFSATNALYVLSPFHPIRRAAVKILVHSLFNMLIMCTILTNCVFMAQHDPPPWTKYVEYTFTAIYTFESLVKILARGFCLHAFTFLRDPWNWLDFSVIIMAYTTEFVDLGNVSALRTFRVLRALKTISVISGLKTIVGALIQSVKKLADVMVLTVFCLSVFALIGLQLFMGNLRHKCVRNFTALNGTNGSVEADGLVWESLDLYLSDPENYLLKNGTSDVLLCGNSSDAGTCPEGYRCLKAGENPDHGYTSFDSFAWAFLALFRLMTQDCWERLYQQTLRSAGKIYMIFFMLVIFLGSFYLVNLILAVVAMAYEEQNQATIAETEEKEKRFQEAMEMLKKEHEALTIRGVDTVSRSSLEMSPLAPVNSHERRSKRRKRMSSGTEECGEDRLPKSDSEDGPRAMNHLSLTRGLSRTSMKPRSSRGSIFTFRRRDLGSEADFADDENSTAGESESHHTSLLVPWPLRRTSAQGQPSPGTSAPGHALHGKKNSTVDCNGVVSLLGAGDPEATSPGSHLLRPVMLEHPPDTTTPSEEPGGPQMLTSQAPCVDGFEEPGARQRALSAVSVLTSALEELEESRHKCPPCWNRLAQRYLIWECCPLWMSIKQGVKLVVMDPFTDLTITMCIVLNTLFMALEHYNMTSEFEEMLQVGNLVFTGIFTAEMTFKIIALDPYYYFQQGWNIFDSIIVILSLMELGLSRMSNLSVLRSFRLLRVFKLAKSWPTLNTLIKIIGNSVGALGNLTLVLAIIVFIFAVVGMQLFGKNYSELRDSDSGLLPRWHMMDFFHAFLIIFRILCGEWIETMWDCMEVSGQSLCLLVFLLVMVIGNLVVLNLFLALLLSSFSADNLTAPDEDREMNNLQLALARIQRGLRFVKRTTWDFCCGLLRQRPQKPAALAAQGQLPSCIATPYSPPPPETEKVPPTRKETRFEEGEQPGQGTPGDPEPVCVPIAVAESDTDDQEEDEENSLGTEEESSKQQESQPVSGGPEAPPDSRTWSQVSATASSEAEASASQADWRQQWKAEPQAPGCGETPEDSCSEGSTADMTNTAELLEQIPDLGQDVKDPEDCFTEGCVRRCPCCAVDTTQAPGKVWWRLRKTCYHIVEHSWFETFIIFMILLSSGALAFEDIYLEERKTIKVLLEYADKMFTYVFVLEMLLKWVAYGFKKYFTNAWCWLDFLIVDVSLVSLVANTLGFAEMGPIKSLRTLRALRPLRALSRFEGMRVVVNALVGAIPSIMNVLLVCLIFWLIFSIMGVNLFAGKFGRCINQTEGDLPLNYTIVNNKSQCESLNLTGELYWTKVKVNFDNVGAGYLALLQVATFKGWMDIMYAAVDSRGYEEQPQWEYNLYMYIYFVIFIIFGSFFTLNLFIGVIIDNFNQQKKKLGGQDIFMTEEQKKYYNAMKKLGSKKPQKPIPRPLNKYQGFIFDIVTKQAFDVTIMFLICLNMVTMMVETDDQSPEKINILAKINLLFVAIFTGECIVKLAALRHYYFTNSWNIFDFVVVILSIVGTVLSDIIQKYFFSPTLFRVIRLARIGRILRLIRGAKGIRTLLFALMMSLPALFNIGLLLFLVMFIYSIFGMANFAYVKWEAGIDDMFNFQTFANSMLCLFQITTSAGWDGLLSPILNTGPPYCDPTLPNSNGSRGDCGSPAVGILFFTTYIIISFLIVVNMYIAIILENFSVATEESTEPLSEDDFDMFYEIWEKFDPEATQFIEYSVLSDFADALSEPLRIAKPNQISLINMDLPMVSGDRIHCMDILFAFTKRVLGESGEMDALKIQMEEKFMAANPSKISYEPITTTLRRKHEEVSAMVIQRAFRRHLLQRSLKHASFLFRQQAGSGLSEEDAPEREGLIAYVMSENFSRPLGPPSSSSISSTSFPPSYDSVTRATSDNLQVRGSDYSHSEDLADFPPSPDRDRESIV
# Protocol: The late sodium current (Late INa) and peak sodium current (Peak INa) assays are performed on an automated electrophysiology platform, QPatch 16× (Sophion Bioscience, Copenhagen, Denmark), which uses the whole cell patch clamp technique to measure currents through the cell membrane of up to 16 cells at a time. The assay uses an HEK293 (human embryonic kidney) cell line heterologously expressing the wild-type human cardiac sodium channel, hNav1.5, purchased from Millipore (Billerica, Mass.). No beta subunits were coexpressed with the Na channel alpha subunit. Cells are maintained with standard tissue culture procedures and stable channel expression is maintained with 400 μg/mL Geneticin in the culture medium. […] Experiments are carried out at 23-25° C. For both the Late INa and Peak INa assays, series resistance compensation is set to 100% and series resistance and whole-cell compensation are performed automatically. Currents are digitized at 25 kHz and low-pass filtered at 12 kHz and 10 kHz for the late and peak INa assays, respectively. Currents through open sodium channels are automatically recorded and stored in the Sophion Bioscience Oracle database (Sophion Bioscience, Copehagen, Denmark). Analysis is performed using QPatch Assay and database software and data are compiled in Excel. Compound stocks are routinely made by the Gilead Sample Bank in plastic vials to 10 mM in dimethyl sulfoxide (DMSO). In some cases, when compounds are not soluble in DMSO, they are made in 100% ethanol. Stocks are sonicated as necessary. […] The intracellular solution used to perfuse the inside of the cells for both the Late INa and Peak INa assays contains: 120 mM CsF, 20 mM CsCl, 5 mM EGTA, 5 mM HEPES and pH adjusted to 7.4 with CsOH. Compounds are diluted in extracellular solution to 1 μM in glass vials and then transferred to glass well plates before robotic addition to the cells. […] Compounds were also evaluated for their effect in several other assays, including their effect on Peak INa. Good separation between the concentrations of test compound to reduce late and peak INa is beneficial to enable separation of the desired effect to reduce late INa-induced electrical and mechanical dysfunction from the undesired effect to reduce peak INa, which can lead to slowing or block of conduction of electrical excitation in the heart. It is contemplated that the compounds of Formula I avoid significant block of peak INa. Since the peak INa in the cells used herein can be very large, introducing artifacts in the recording, the concentration of Na^+ in the bath can be reduced to 20 mM and a nonpermeant cation added to compensate for the Na^+ that was removed to maintain the osmolarity and ionic strength of the solution (see solution details below). Analysis of peak INa generally requires correction for rundown before determining the % block of peak current by the tested compound. […] A low stimulation frequency of 0.1 Hz was used to determine the effect of the test compound when the channel spent most of the time in the resting (closed) state and provides information about Tonic Block (TB). A higher stimulation frequency (3 Hz) was used to measure block of the channel when it spent more time in the activated and inactivated states and provided a measure of Use-Dependent Block (UDB). Use-dependent block refers to the accumulation of block with increased frequency of channel activation. Block of cardiac peak INa by compounds of this invention is increased with an increase in the frequency of stimulation from 0.1 to 1-5 Hz (frequencies encountered either in the normal heart or during tachycardia). It is therefore expected that reduction of peak INa by compounds of this invention will be greater at high heart rates, such as those during tachyarrhythmias, than at normal heart rates. […]
# [5] = target: wild-type human cardiac sodium channel, hNav1.5 (late INa) (Homo sapiens, UniProt Q14524); assay: Late INa screening assay (QPatch whole cell patch clamp); format: cell-based
# wild-type human cardiac sodium channel, hNav1.5 (late INa), sequence (Q14524 whole entry): as above
# How it was run: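 Compounds tested at 1 μM final in extracellular solution against tefluthrin (10 μM)-enhanced late current. Automated patch clamp (23-25° C) on HEK293 expressing alpha subunit alone: −120 mV holding, 250 ms depolarization to −20 mV every 10 s. Read-out is percent inhibition of mean current over 225–250 ms.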
# [6] = tonic block of peak INa, 0.1 Hz, 1 μM, read-out: Peak TB 1 μM
# [7] = use-dependent block of peak INa, 3 Hz, 1 μM, read-out: Peak UDB 1 μM
# [8] = percent block of late INa, compound at 1 μM, 10 μM Tefluthrin, HEK293 hNav1.5, read-out: Late INa 1 μM
SMILES,MS Human THalf [1] [min],MS Rat THalf [2] [min],MS Dog THalf [3] [min],"inhibition at 1 µM [4, 6] [%]","inhibition at 1 µM [4, 7] [%]","inhibition at 1 µM [5, 8] [%]","inhibition at 1 µM ([4]; % inhibition at 1 μM, tonic block, read-out: NAv1.5*-PEAK-TB-) [%]","inhibition at 1 µM ([4]; % inhibition at 1 μM, use-dependent block 3 Hz, read-out: NAv1.5*-PEAK-UDB-3 HZ-) [%]","inhibition at 1 µM ([5]; % inhibition at 1 μM, read-out: NAv1.5*-LATE-) [%]",inhibition at 1 µM ([4]; read-out: Peak TB 1 μM) [%],inhibition at 1 µM ([4]; read-out: Peak UDB 1 μM) [%]
"Cc1coc(Cn2nnc3ccc(-c4ccc(OC(F)(F)F)cc4)cc3c2=O)n1 [II-97, 3-((4-methyloxazol-2-yl)methyl)-6-(4-(trifluoromethoxy)phenyl)benzo[d][1,2,3]triazin-4(3H)-one]",206,24,63,12,7,54,–,–,–,–,–
"Cc1nccn1CC1(Cn2nnc3ccc(-c4ccc(OC(F)(F)F)cc4)cc3c2=O)CC1 [II-34, 3-((1-((2-methyl-1H-imidazol-1-yl)methyl)cyclopropyl)methyl)-6-(4-(trifluoromethoxy)phenyl)benzo[d][1,2,3]triazin-4(3H)-one]",2,2,2,27,34,48,–,–,–,–,–
"O=C1c2cc(-c3ccc(C(F)(F)F)cc3)ccc2SCN1Cc1ccccn1 [Compound X-3, 3-(pyridin-2-ylmethyl)-6-(4-(trifluoromethyl)phenyl)-2H-benzo[e][1,3]thiazin-4(3H)-one]",36,45,137,31,35,67,–,–,–,–,–
"Cc1cc(Cn2nnc3ccc(-c4ccc(OC(F)(F)F)cc4)cc3c2=O)no1 [II-26, 3-((5-methylisoxazol-3-yl)methyl)-6-(4-(trifluoromethoxy)phenyl)benzo[d][1,2,3]triazin-4(3H)-one]",382,80,67,14,5,47,–,–,–,–,–
"Cc1ccnn1CCn1ncc2ccc(-c3ccc(OC(F)(F)F)cc3)cc2c1=O [III-32, 2-(2-(5-methyl-1H-pyrazol-1-yl)ethyl)-7-(4-(trifluoromethoxy)phenyl)phthalazin-1 (2H)-one]",20,12,16,18,23,53,–,–,–,–,–
"O=C1c2cc(-c3ccc(OC(F)(F)F)cc3)ccc2SCN1Cc1ncccn1 [Compound X-2, 3-(pyrimidin-2-ylmethyl)-6-(4-(trifluoromethoxy)phenyl)-2H-benzo[e][1,3]thiazin-4(3H)-one]",142,137,164,14,17,55,–,–,–,–,–
"O=c1c2cc(-c3ccc(OC(F)(F)F)cc3)ccc2nnn1CC1(CN2CCCC2)CC1 [II-63, 3-((1-(pyrrolidin-1-ylmethyl)cyclopropyl)methyl)-6-(4-(trifluoromethoxy)phenyl)benzo[d][1,2,3]triazin-4(3H)-one]",34,31,36,23,50,46,–,–,–,–,–
"O=c1c2cc(-c3ccc(OC(F)(F)F)cc3)ccc2cnn1Cc1nccc(C2CC2)n1 [III-23, 2-((4-cyclopropylpyrimidin-2-yl)methyl)-7-(4-(trifluoromethoxy)phenyl)phthalazin-1 (2H)-one]",254,42,209,6,12,51,–,–,–,–,–
"O=C1c2cc(-c3ccc(OC(F)(F)F)cc3)ccc2SCN1Cc1ncccc1F [Compound X-9, 3-((3-fluoropyridin-2-yl)methyl)-6-(4-(trifluoromethoxy)phenyl)-2H-benzo[e][1,3]thiazin-4(3H)-one]",70,47,75,39,31,67,–,–,–,–,–
"O=c1c2cc(-c3ccc(OC(F)(F)F)cc3)ccc2cnn1CCOc1ccccn1 [III-40, 2-(2-(pyridin-2-yloxy)ethyl)-7-(4-(trifluoromethoxy)phenyl)phthalazin-1 (2H)-one]",152,62,56,4,2,51,–,–,–,–,–
"O=C(c1ncccc1F)N1CCc2ccc(-c3ccc(C(F)(F)F)cc3)cc2C1 [IX-25, (3-fluoropyridin-2-yl)(7-(4-(trifluoromethyl)phenyl)-3,4-dihydroisoquinolin-2(1H)-yl)methanone]",320,170,97,28,33,57,28,32,57,–,–
"Cc1nc(Cn2nnc3ccc(-c4ccc(OC(F)(F)F)cc4)cc3c2=O)co1 [II-99, 3-((2-methyloxazol-4-yl)methyl)-6-(4-(trifluoromethoxy)phenyl)benzo[d][1,2,3]triazin-4(3H)-one]",128,42,62,9,0,47,–,–,–,–,–
"Cc1cnc(Cn2nnc3ccc(-c4ccc(OC(F)(F)F)cc4)cc3c2=O)o1 [II-96, 3-((5-methyloxazol-2-yl)methyl)-6-(4-(trifluoromethoxy)phenyl)benzo[d][1,2,3]triazin-4(3H)-one]",84,34,81,10,5,51,–,–,–,–,–
"O=c1c2cc(-c3ccc(OC(F)(F)F)cc3)ccc2nnn1CC1(COc2ncccn2)CC1 [II-80, 3-((1-((pyrimidin-2-yloxy)methyl)cyclopropyl)methyl)-6-(4-(trifluoromethoxy)phenyl)benzo[d][1,2,3]triazin-4(3H)-one]",49,34,85,–,–,42,–,–,–,8,7
